Laboratory results reported in patent US10519147B2 (Merck Sharp & Dohme Corp., priority 2015, dated 2019).

Tests used:
[1] = target: T1, human Nav1.5 (Homo sapiens, UniProt Q14524); assay: IonWorks Quattro automated patch-clamp, Nav1.5 (selectivity against Nav1.7); format: cell-based; settings: IonWorks measurement, HEK 293 cells, inactivated state block
T1 construct: expressed in transfected cells; host or cells: HEK 293
Method: (§1) Compounds were tested on human Nav1.7 and Nav1.5 channels stably expressed in HEK 293 cells. […] Cells were sealed on a planar substrate using the Population Patch […] (PPC) technology. Electrical access was obtained using both nystatin and amphotericin. A double-pulse protocol was used for the determination of IC50 values for inactivated state block. Nav1.7 and Nav1.5 expressing cells were voltage clamped at −100 mV and −110 mV, respectively. A depolarizing prepulse to −10 mV (Nav1.7) or −30 mV (Nav1.5) for 1000 ms followed by a 10 ms repolarization to −100 mV (Nav1.7) or −110 mV (Nav1.5) was given to generate fractional channel inactivation of 50%, followed by a 10 ms test pulse to −10 mV (Nav1.7) or −30 mV (Nav1.5) to measure peak current in control conditions and after compound addition. The following recording solutions were used (mM). External: 150 NaCl, 2 CaCl2, 5 KCl, 1 Mg Cl2, 10 HEPES, 12 Dextrose; internal: 120 CsF, 30 CsCl, 10 EGTA, 5 HEPES, 5 NaF, 2 MgCl2.
(§2) For all electrophysiology experiments, offline analysis was used to determine percent inhibition as a function of drug concentration. IC50 values were determined by fitting to the Hill equation.

[2] = target: T2, human Nav1.7 (Homo sapiens, UniProt Q15858); assay: IonWorks Quattro automated patch-clamp, inactivated state block of Nav1.7; format: cell-based; settings: channels stably expressed in HEK 293 cells; double-pulse protocol, inactivated state block; read-out: potency for the Nav 1.7 sodium ion channel (IC50, as measured by IonWorks)
T2 construct: expressed in transfected cells; host or cells: HEK 293
T2 sequence (Q15858 whole entry): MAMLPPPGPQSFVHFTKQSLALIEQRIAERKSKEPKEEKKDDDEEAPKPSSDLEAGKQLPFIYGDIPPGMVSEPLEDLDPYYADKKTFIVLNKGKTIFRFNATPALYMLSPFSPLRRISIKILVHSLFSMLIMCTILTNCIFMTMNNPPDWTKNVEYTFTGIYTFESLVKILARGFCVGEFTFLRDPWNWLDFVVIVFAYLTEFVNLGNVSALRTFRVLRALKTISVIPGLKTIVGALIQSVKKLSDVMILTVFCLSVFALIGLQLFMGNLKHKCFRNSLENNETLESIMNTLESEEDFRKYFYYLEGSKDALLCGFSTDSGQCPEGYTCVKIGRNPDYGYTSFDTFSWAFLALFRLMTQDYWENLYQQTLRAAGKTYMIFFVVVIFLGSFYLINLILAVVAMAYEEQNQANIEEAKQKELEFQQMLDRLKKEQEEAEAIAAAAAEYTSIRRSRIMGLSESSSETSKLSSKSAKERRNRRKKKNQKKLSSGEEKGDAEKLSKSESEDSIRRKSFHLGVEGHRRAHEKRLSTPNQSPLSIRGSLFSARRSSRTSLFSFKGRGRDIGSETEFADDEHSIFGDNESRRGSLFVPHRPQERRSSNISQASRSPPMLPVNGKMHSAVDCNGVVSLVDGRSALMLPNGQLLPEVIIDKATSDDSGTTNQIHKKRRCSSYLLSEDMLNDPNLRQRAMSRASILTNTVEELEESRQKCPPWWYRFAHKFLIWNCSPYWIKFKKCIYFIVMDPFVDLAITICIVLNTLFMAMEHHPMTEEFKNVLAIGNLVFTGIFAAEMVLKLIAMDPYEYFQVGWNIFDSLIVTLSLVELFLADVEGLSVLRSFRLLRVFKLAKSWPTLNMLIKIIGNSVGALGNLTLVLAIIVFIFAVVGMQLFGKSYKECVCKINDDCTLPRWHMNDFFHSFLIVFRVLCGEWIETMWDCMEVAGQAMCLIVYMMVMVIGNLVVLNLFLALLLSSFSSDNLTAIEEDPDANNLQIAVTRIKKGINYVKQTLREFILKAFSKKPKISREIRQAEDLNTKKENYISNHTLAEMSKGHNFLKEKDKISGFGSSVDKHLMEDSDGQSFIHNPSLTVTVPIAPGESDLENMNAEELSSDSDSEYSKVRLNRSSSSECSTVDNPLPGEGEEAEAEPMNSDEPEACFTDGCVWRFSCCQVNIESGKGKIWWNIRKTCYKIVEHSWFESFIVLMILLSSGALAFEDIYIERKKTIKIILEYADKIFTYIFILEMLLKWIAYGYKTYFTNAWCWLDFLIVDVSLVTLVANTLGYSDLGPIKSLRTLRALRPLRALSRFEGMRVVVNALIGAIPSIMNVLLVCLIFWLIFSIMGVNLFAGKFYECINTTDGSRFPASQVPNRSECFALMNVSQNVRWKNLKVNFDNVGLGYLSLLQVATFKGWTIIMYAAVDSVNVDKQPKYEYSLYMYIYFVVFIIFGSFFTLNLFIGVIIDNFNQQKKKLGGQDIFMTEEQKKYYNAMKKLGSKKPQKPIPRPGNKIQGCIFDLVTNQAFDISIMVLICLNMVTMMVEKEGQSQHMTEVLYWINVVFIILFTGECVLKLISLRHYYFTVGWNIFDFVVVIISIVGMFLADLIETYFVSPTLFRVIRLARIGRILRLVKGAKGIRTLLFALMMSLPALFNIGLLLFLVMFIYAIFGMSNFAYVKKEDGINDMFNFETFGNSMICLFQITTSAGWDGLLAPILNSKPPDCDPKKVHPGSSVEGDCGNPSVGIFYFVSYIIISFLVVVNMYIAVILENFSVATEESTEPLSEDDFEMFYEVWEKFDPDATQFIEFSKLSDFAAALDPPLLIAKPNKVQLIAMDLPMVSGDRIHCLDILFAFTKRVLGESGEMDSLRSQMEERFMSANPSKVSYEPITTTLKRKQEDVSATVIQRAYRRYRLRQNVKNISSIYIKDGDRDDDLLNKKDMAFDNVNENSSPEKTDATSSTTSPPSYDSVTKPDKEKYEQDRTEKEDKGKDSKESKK
Method: as §1, §2

T1 sequence (Q14524 whole entry): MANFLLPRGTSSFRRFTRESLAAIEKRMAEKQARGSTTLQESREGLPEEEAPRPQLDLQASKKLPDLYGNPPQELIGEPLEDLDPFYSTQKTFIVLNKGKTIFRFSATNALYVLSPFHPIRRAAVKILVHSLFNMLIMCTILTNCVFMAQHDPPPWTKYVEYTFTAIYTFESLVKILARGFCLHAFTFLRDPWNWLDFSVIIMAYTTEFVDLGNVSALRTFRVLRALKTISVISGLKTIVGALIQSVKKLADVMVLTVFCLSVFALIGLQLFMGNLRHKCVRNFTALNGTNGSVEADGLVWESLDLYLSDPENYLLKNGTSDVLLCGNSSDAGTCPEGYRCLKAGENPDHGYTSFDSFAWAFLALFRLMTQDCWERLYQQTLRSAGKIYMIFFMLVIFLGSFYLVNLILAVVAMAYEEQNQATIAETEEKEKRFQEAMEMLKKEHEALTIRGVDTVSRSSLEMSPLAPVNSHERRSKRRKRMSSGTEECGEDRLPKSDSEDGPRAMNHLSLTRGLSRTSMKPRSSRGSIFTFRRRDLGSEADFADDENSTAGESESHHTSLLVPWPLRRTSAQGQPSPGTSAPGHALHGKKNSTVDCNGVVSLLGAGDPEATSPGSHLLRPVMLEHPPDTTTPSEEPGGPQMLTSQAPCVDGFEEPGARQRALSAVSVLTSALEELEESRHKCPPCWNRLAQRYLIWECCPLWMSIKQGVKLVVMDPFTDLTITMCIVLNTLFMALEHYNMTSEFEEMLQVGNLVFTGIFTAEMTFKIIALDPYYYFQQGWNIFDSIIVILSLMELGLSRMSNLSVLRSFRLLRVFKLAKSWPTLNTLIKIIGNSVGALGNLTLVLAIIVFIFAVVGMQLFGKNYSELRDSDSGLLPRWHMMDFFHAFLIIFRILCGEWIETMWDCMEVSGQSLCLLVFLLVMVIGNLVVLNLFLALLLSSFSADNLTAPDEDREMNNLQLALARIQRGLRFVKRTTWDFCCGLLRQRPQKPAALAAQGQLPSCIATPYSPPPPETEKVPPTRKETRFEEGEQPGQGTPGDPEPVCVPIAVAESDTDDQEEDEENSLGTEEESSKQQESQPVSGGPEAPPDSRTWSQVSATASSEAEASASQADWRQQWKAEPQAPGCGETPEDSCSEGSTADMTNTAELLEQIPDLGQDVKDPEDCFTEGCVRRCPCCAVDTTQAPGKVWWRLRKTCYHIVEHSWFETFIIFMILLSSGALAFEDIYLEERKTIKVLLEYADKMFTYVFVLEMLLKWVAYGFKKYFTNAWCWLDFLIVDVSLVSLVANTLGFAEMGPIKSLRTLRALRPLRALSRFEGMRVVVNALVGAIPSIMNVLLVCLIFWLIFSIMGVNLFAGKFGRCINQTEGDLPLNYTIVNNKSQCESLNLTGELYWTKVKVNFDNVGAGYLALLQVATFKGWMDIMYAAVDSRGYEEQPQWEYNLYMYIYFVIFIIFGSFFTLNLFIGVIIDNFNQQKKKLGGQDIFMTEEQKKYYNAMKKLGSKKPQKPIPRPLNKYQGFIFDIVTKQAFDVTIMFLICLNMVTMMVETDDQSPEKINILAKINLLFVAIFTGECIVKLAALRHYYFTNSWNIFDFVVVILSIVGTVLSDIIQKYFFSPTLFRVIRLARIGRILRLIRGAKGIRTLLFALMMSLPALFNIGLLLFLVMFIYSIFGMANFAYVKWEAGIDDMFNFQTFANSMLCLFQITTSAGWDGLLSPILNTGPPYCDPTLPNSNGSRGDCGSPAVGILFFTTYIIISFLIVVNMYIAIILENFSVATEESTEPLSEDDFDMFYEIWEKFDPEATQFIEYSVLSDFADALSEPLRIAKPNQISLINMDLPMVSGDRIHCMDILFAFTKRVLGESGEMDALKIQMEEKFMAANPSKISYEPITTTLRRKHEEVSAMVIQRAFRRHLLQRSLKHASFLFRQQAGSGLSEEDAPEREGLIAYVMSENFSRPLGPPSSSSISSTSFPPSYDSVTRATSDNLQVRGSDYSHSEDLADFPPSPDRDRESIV

SMILES	IC50 [2]	ratio of Nav 1.7 potency:Nav 1.5 potency [1]	ratio of Nav 1.7 potency:Nav 1.5 potency ([1]; listed as Ex1-04)
O=S(=O)(Nc1nccs1)c1cc(Cl)c(NCCCCNC[C@@H]2CCCCN2)cc1F [Ex 1-04, 5-chloro-2-fluoro-4-[(4-{[(2S)-piperidin-2-ylmethyl]amino}butyl)amino]-N-1,3-thiazol-2-yl-benzenesulfonamide]	0.0096 µM	> 3440	3440
N[C@H]1CCCC[C@@H]1NCCCCNc1cc(F)c(S(=O)(=O)Nc2nccs2)cc1Cl [Ex 1-07, 4-[(4-{[(1S,2S)-2-amino-cyclohexyl]amino}butyl)-amino]-5-chloro-2-fluoro-N-1,3-thiazol-2-yl-benzenesulfonamide]	0.018 µM	> 1800	–
N[C@@H]1CCCC[C@H]1NCCCCNc1cc(F)c(S(=O)(=O)Nc2nccs2)cc1Cl [Ex 1-28, 4-[(4-{[(1R,2R)-2-aminocyclohexyl]amino}butyl)amino]-5-chloro-2-fluoro-N-1,3-thiazol-2-ylbenzenesulfonamide]	0.0084 µM	> 3930	–
N[C@@H]1CCC[C@@H]1NCCCCNc1cc(F)c(S(=O)(=O)Nc2nccs2)cc1Cl [Ex 1-29, 4-[(4-{[(1S,2R)-2-aminocyclopentyl]amino}butyl)amino]-5-chloro-2-fluoro-N-1,3-thiazol-2-ylbenzenesulfonamide]	0.052 µM	> 635	–
CNCCNCCCCNc1cc(F)c(S(=O)(=O)Nc2ncc(Cl)s2)cc1Cl [Ex 16-49, 5-chloro-N-(5-chloro-1,3-thiazol-2-yl)-2-fluoro-4-[(4-{[2-(methylamino)ethyl]-amino}butyl)amino] benzene-sulfonamide]	0.014 µM	–	–
CNCCNCCCCNc1cc(F)c(S(=O)(=O)Nc2nccs2)cc1Br [Ex 16-50, 5-bromo-2-fluoro-4-[(4-{[2-(methylamino)ethyl]amino}-butyl)amino]-N-1,3-thiazol-2-ylbenzenesulfonamide]	0.011 µM	–	–
CNCCCNCCCCNc1cc(F)c(S(=O)(=O)Nc2nccs2)cc1Br [Ex 16-55, 5-bromo-2-fluoro-4-[(4-{[3-(methylamino)propyl]amino}butyl)amino]-N-1,3-thiazol-2-ylbenzenesulfonamide]	0.018 µM	–	–
CNCCCNCCCCNc1cc(F)c(S(=O)(=O)Nc2ncc(F)s2)cc1Br [Ex 16-56, 5-bromo-2-fluoro-N-(5-fluoro-1,3-thiazol-2-yl)-4-[(4-{[3-(methylamino)-propyl]amino}butyl)amino]-benzenesulfonamide]	0.012 µM	–	–
NC1(CNCCCCNc2cc(F)c(S(=O)(=O)Nc3ncc(F)s3)cc2Cl)CC1 [Ex 16-63, 4-[(4-{[(1-aminocyclopropyl)methyl]amino}butyl)amino]-5-chloro-2-fluoro-N-(5-fluoro-1,3-thiazol-2-yl)benzenesulfonamide]	0.056 µM	–	–
NC1(CNCCCCNc2cc(F)c(S(=O)(=O)Nc3ncc(F)s3)cc2Cl)CCC1 [Ex 16-69, 4-[(4-{[(1-aminocyclobutyl)methyl]amino}butyl)amino]-5-chloro-2-fluoro-N-(5-fluoro-1,3-thiazol-2-yl)benzenesulfonamide]	0.018 µM	–	–
N[C@H]1CCC[C@@H]1NCCCCNc1cc(F)c(S(=O)(=O)Nc2nccs2)cc1Cl [Ex 16-72, 4-[(4-{[(1S,2S)-2-aminocyclopentyl]amino}butyl)amino]-5-chloro-2-fluoro-N-1,3-thiazol-2-ylbenzenesulfonamide]	0.011 µM	–	–
O=S(=O)(Nc1ncc(F)s1)c1cc(Cl)c(NCCCCNC[C@H]2CCN2)cc1F [Ex 16-73, 4-[(4-{[(2R)-azetidin-2-ylmethyl]amino}butyl)amino]-5-chloro-2-fluoro-N-(5-fluoro-1,3-thiazol-2-yl)benzenesulfonamide]	0.019 µM	–	–
O=S(=O)(Nc1ncns1)c1cc(Br)c(NCCCCN[C@H]2CCNC2)cc1F [Ex 16-100, (S)-5-bromo-2-fluoro-4-((4-(pyrrolidin-3-ylamino)butyl)amino)-N-(1,2,4-thiadiazol-5-yl)benzenesulfonamide]	0.015 µM	–	–

Now from value to compound, other results behind:

IC50 [2]	SMILES	ratio of Nav 1.7 potency:Nav 1.5 potency [1]	ratio of Nav 1.7 potency:Nav 1.5 potency ([1]; listed as Ex1-04)
0.0033 µM	NC1CCC1NCCCCNc1cc(F)c(S(=O)(=O)Nc2ncns2)cc1Cl (single isomer, unassigned) [Ex 16-82, 4-[4-[[(1S,2S) or (1R,2R)-2-aminocyclobutyl]amino]butylamino]-5-chloro-2-fluoro-N-(1,2,4-thiadiazol-5-yl) benzenesulfonamide]	> 10000	–
0.0047 µM	NC1CCC1NCCCCNc1cc(F)c(S(=O)(=O)Nc2ncns2)cc1Cl (single isomer, unassigned) [Ex 16-83, 4-[4-[[(1R,2R) or (1S,2S)-2-aminocyclobutyl]amino]butylamino]-5-chloro-2-fluoro-N-(1,2,4-thiadiazol-5-yl)benzenesulfonamide]	> 7020	–
0.031 µM	C[C@H](NCCCCNc1cc(F)c(S(=O)(=O)Nc2nccs2)cc1Cl)[C@@H]1CCCN1 [Ex 1-27, 5-chloro-2-fluoro-4-{[4-({(1S)-1-[(2S)-pyrrolidin-2-yl]ethyl}amino)butyl]-amino}-N-1,3-thiazol-2-yl-benzenesulfonamide]	> 1070	–
0.08 µM	O=S(=O)(Nc1ncns1)c1cc(F)c(NCCCCNC[C@@H]2CCCN2)cc1F [Ex 7-7, 2,5-difluoro-4-[(4-{[(2S)-pyrrolidin-2-ylmethyl]amino}butyl)amino]-N-1,2,4-thiadiazol-5-ylbenzenesulfonamide]	> 410	–
0.037 µM	O=S(=O)(Nc1ncns1)c1cc(Cl)c(NCCCCNCCCNCCF)cc1F [Ex 16-58, 5-chloro-2-fluoro-4-{[4-({3-[(2-fluoroethyl)amino]-propyl}amino)butyl]amino}-N-1,2,4-thiadiazol-5-yl-benzenesulfonamide]	–	–
0.011 µM	C[C@H](CN)NCCCCNc1cc(F)c(S(=O)(=O)Nc2ncns2)cc1Cl [Ex 16-60, 4-[(4-{[(1R)-2-amino-1-methylethyl]amino}butyl)-amino]-5-chloro-2-fluoro-N-1,2,4-thiadiazol-5-yl-benzenesulfonamide]	–	–
0.021 µM	CC(C)(CN)NCCCCNc1cc(F)c(S(=O)(=O)Nc2ncc(F)s2)cc1Cl [Ex 16-61, 4-({4-[(2-amino-1,1-dimethylethyl)amino]butyl}amino)-5-chloro-2-fluoro-N-(5-fluoro-1,3-thiazol-2-yl)benzenesulfonamide]	–	–
0.028 µM	CN[C@H](C)CNCCCCNc1cc(F)c(S(=O)(=O)Nc2ncc(F)s2)cc1Cl [Ex 16-65, 5-chloro-2-fluoro-N-(5-fluoro-1,3-thiazol-2-yl)-4-[(4-{[(2R)-2-(methylamino)propyl]amino}butyl)amino] benzenesulfonamide]	–	–
0.016 µM	C[C@@H](CN)NCCCCNc1cc(F)c(S(=O)(=O)Nc2ncc(F)s2)cc1Cl [Ex 16-66, 4-[(4-{[(1S)-2-amino-1-methylethyl]amino}butyl)amino]-5-chloro-2-fluoro-N-(5-fluoro-1,3-thiazol-2-yl)benzenesulfonamide]	–	–
0.016 µM	C[C@@H](CN)NCCCCNc1cc(F)c(S(=O)(=O)Nc2ncns2)cc1Cl [Ex 16-67, 4-[(4-{[(1S)-2-amino-1-methylethyl]amino}butyl)amino]-5-chloro-2-fluoro-N-1,2,4-thiadiazol-5-ylbenzenesulfonamide]	–	–
0.012 µM	C[C@H](CN)NCCCCNc1cc(F)c(S(=O)(=O)Nc2ncns2)cc1Br [Ex 16-78, 4-[(4-{[(1R)-2-amino-1-methylethyl]amino}butyl)amino]-5-bromo-2-fluoro-N-1,2,4-thiadiazol-5-ylbenzenesulfonamide]	–	–
0.012 µM	NC1(CNCCCCNc2cc(F)c(S(=O)(=O)Nc3ncns3)cc2Br)CC1 [Ex 16-89, 4-[4-[(1-aminocyclopropyl)methylamino]butylamino]-5-bromo-2-fluoro-N-(1,2,4-thiadiazol-5-yl)benzenesulfonamide]	–	–
0.0051 µM	CNCCNCCCCNc1cc(F)c(S(=O)(=O)Nc2ncns2)cc1Br [Ex 16-90, 5-bromo-2-fluoro-4-[4-[2-(methylamino)ethylamino]butylamino]-N-(1,2,4-thiadiazol-5-yl)benzenesulfonamide]	–	–
0.014 µM	CNCCCNCCCCNc1cc(F)c(S(=O)(=O)Nc2ncns2)cc1Br [Ex 16-91, 5-bromo-2-fluoro-4-[4-[3-(methylamino)propylamino]butylamino]-N-(1,2,4-thiadiazol-5-yl)benzenesulfonamide]	–	–
0.015 µM	CC1(NCCCCNc2cc(F)c(S(=O)(=O)Nc3ncns3)cc2Br)CCNC1 (centres unmarked) [Ex 16-96, 5-bromo-2-fluoro-4-[4-[(3-methylpyrrolidin-3-yl)amino]butylamino]-N-(1,2,4-thiadiazol-5-yl)benzenesulfonamide]	–	–
0.018 µM	NCCCNCCCCNc1cc(F)c(S(=O)(=O)Nc2ncns2)cc1Br [Ex 16-97, 4-[4-(3-aminopropylamino)butylamino]-5-bromo-2-fluoro-N-(1,2,4-thiadiazol-5-yl)benzenesulfonamide]	–	–
